22 compounds from PubChem BioAssay AID330 (DTP/NCI, 2004) can be followed below.

The subject of this assay is P388 leukemia ip, CD2F1 mice, survival T/C. Kind of assay: NCI In Vivo Anticancer Drug Screen. Data for tumor model P388 Leukemia (intraperitoneal) in CD2F1 (CDF1) mice. The following applies: endpoint: median survival time, higher = longer survival. In outline:
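Mice carrying the transplanted tumor received test compound or vehicle. Survival was recorded in each group, and the value is the treated-group measurement divided by that of the vehicle-treated control group.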

Where [1] appears, read: dose: 25.0 mg/kg/injection, schedule: Q01DX005 (ip), vehicle: Klucel (hydroxypropylcellulose) (HPC).
[2] abbreviates: dose: 50.0 mg/kg/injection, schedule: Q01DX005 (ip), vehicle: Klucel (hydroxypropylcellulose) (HPC).
The mark [3] stands for this setting: dose: 100.0 mg/kg/injection, schedule: Q01DX005 (ip), vehicle: Klucel (hydroxypropylcellulose) (HPC).
The mark [4] stands for this setting: dose: 200.0 mg/kg/injection, schedule: Q01DX005 (ip), vehicle: Klucel (hydroxypropylcellulose) (HPC).
Setting [5] is: dose: 100.0 mg/kg/injection, schedule: Q01DX001 (ip), vehicle: saline with Tween-80.
[6] abbreviates: dose: 200.0 mg/kg/injection, schedule: Q01DX001 (ip), vehicle: saline with Tween-80.
Setting [7] is: dose: 400.0 mg/kg/injection, schedule: Q01DX001 (ip), vehicle: saline with Tween-80.
Where [8] appears, read: dose: 6.25 mg/kg/injection, schedule: Q01DX009 (ip), vehicle: saline.
The mark [9] stands for this setting: dose: 12.5 mg/kg/injection, schedule: Q01DX009 (ip), vehicle: saline.
Where [10] appears, read: dose: 25.0 mg/kg/injection, schedule: Q01DX009 (ip), vehicle: saline.

Several values for one entry are separate records, joined by “and”; a condition that tells them apart may be missing. Equal entries are not always repeated. Inconclusive results and toxic doses are left out.

Turning to `CCOP(O)(=S)OCC.[Ce]`, the T/C by setting is: (dose: 100.0 mg/kg/injection, schedule: Q04DX003 (ip), vehicle: Klucel (hydroxypropylcellulose) (HPC)) 99 % of control; (dose: 200.0 mg/kg/injection, schedule: Q04DX003 (ip), vehicle: Klucel (hydroxypropylcellulose) (HPC)) 100 % of control; (dose: 400.0 mg/kg/injection, schedule: Q04DX003 (ip), vehicle: Klucel (hydroxypropylcellulose) (HPC)) 93 % of control.

As for `COc1cccc(CCN2C(=O)CCC3=C2CCC3=O)c1`, the T/C runs as follows: under setting [1], 94 % of control; under setting [2], 105 % of control; under setting [3], 102 % of control; under setting [4], 98 % of control.

Turning to `CC(=O)OCC1OC(n2nnc3c(=O)[nH]cnc32)C(OC(C)=O)C(OC(C)=O)C1OC(C)=O` (stereo not given), the T/C was 96 % of control under setting [5], 102 % of control under setting [6] and 94 % of control under setting [7].

Consider `O/N=C/C(Cl)(Cl)Cl`, for which the T/C was 105 % of control (dose: 3.12 mg/kg/injection, schedule: Q01DX009 (ip), vehicle: saline); 109 % of control under setting [8]; 107 % of control and 97 % of control under setting [9]; 100 % of control and 93 % of control under setting [10].

As to `Oc1cc2cccc[n+]2c2ccccc12`, the T/C runs as follows: (dose: 15.0 mg/kg/injection, schedule: Q01DX005 (ip), vehicle: Klucel (hydroxypropylcellulose) (HPC)) 99 % of control; (dose: 30.0 mg/kg/injection, schedule: Q01DX005 (ip), vehicle: Klucel (hydroxypropylcellulose) (HPC)) 101 % of control; (dose: 60.0 mg/kg/injection, schedule: Q01DX005 (ip), vehicle: Klucel (hydroxypropylcellulose) (HPC)) 118 % of control and 97 % of control.

Take `CC(=O)C(c1ccccc1)[N+](C)(C)C` (stereo not given): the T/C (dose: 25.0 mg/kg/injection, schedule: Q04DX003 (ip), vehicle: other) was 100 % of control; the T/C (dose: 50.0 mg/kg/injection, schedule: Q04DX003 (ip), vehicle: other) is 100 % of control; the T/C (dose: 100.0 mg/kg/injection, schedule: Q04DX003 (ip), vehicle: other) is 98 % of control.

As for `NNc1nnnc2c1sc1ccccc12`, the T/C reads like this: under setting [5], 89 % of control; under setting [7], 93 % of control.

`CC(C)N(C(=S)Sc1c2ccccc2c(Br)c2ccccc12)C(C)C`: the T/C reads like this: (dose: 12.5 mg/kg/injection, schedule: Q01DX005 (ip), vehicle: Klucel (hydroxypropylcellulose) (HPC)) 108 % of control; under setting [1], 102 % of control; under setting [2], 99 % of control and 89 % of control.

On to `CC1CC=CC(=O)CC1` (stereo not given), for which the T/C was 112 % of control (dose: 50.0 mg/kg/injection, schedule: Q01DX009 (ip), vehicle: Klucel (hydroxypropylcellulose) (HPC)) and 117 % of control (dose: 100.0 mg/kg/injection, schedule: Q01DX009 (ip), vehicle: Klucel (hydroxypropylcellulose) (HPC)).

In the case of `CCC(c1ccc(OC)cc1)C(NCC(=O)N/N=C/c1ccc(N(C)C)cc1)c1ccc(OC)cc1` (stereo not given), the T/C is 100 % of control under setting [5], 100 % of control under setting [6] and 99 % of control under setting [7].

`c1ccc(-c2nn(-c3ccccc3)[n+](-c3ccccc3)n2)cc1`: the T/C runs as follows: (dose: 1.25 mg/kg/injection, schedule: Q01DX009 (ip), vehicle: saline with Tween-80) 100 % of control; (dose: 2.5 mg/kg/injection, schedule: Q01DX009 (ip), vehicle: saline with Tween-80) 90 % of control.

Consider `Cc1ccc(S(=O)(=O)N/N=C2/C=CC3(CC2)CC2C=CC3C2)cc1` (stereo not given), for which the T/C was 91 % of control (dose: 50.0 mg/kg/injection, schedule: Q01DX001 (ip), vehicle: Klucel (hydroxypropylcellulose) (HPC)); 89 % of control (dose: 100.0 mg/kg/injection, schedule: Q01DX001 (ip), vehicle: Klucel (hydroxypropylcellulose) (HPC)); 101 % of control (dose: 200.0 mg/kg/injection, schedule: Q01DX001 (ip), vehicle: Klucel (hydroxypropylcellulose) (HPC)).

As to `Cc1ccc2cccc(OC(=O)c3c(F)cccc3Cl)c2n1`, the T/C is 99 % of control under setting [2], 96 % of control under setting [3] and 99 % of control under setting [4].

For the compound `COc1cccc2cc(-n3nnc4ccccc43)c(=O)oc12`, the T/C was 94 % of control (dose: 30.0 mg/kg/injection, schedule: Q01DX005 (ip), vehicle: saline with Tween-80); 86 % of control and 91 % of control and 94 % of control (dose: 60.0 mg/kg/injection, schedule: Q01DX005 (ip), vehicle: saline with Tween-80); 94 % of control (dose: 120.0 mg/kg/injection, schedule: Q01DX005 (ip), vehicle: saline with Tween-80); 86 % of control and 87 % of control (dose: 240.0 mg/kg/injection, schedule: Q01DX005 (ip), vehicle: saline with Tween-80).

With `COC1C(O)CC(OC2C(C)OC(Oc3cc(O)c4c(O)c5c(cc4c3)C[C@@H]([C@H](OC)C(=O)[C@@H](O)[C@@H](C)O)[C@H](OC3CC(OC4CC(OC6CC(C)(O)C(O)C(C)O6)C(O)C(C)O4)C(O)C(C)O3)C5=O)CC2OC(C)=O)OC1C` (stereo not given in full), the T/C was 107 % of control (dose: 37.5 mg/kg/injection, schedule: Q01DX009 (ip), vehicle: saline); 111 % of control (dose: 75.0 mg/kg/injection, schedule: Q01DX009 (ip), vehicle: saline); 98 % of control (dose: 150.0 mg/kg/injection, schedule: Q01DX009 (ip), vehicle: saline); 107 % of control (dose: 300.0 mg/kg/injection, schedule: Q01DX009 (ip), vehicle: saline).

As to `[N-]=[N+]=NCc1cnnn1C1OC(CO)C(O)C1O` (stereo not given), the T/C is, setting by setting: (dose: 60.0 mg/kg/injection, schedule: Q01DX005 (ip), vehicle: saline) 102 % of control; (dose: 120.0 mg/kg/injection, schedule: Q01DX005 (ip), vehicle: saline) 115 % of control; (dose: 240.0 mg/kg/injection, schedule: Q01DX005 (ip), vehicle: saline) 99 % of control.

For `COc1cc(C(=O)O)cc(C(=O)O)c1`, the T/C under setting [8] was 99 % of control, the T/C under setting [9] is 107 % of control and the T/C under setting [10] was 100 % of control.

For the compound `CC1(C)C(N)C(C)(C)C1N` (stereo not given), the T/C was 94 % of control (dose: 50.0 mg/kg/injection, schedule: Q01DX009 (ip), vehicle: saline); 97 % of control (dose: 100.0 mg/kg/injection, schedule: Q01DX009 (ip), vehicle: saline); 86 % of control (dose: 200.0 mg/kg/injection, schedule: Q01DX009 (ip), vehicle: saline).

Turning to `COc1ccc(NC(=O)c2ccc3c(c2)OCO3)cc1`, the T/C is 108 % of control (dose: 12.5 mg/kg/injection, schedule: Q01DX009 (ip), vehicle: other); 103 % of control (dose: 25.0 mg/kg/injection, schedule: Q01DX009 (ip), vehicle: other); 94 % of control (dose: 50.0 mg/kg/injection, schedule: Q01DX009 (ip), vehicle: other); 95 % of control (dose: 100.0 mg/kg/injection, schedule: Q01DX009 (ip), vehicle: other); 91 % of control (dose: 200.0 mg/kg/injection, schedule: Q01DX009 (ip), vehicle: other).

Turning to `NC1=NC(CNC(=O)c2cccc([N+](=O)[O-])c2)N(c2cccc(Cl)c2)C(N)=N1` (stereo not given), the T/C (dose: 50.0 mg/kg/injection, schedule: Q01DX005 (ip), vehicle: saline) was 100 % of control; the T/C (dose: 100.0 mg/kg/injection, schedule: Q01DX005 (ip), vehicle: saline) is 107 % of control; the T/C (dose: 200.0 mg/kg/injection, schedule: Q01DX005 (ip), vehicle: saline) was 109 % of control.

As to `COC(=O)C1=C(C)NC(=O)NC1c1ccc(N(CCCl)CCCl)c(OC)c1` (stereo not given), the T/C is, setting by setting: (dose: 1.56 mg/kg/injection, schedule: Q01DX009 (ip), vehicle: saline with Tween-80) 160 % of control; (dose: 3.13 mg/kg/injection, schedule: Q01DX009 (ip), vehicle: saline with Tween-80) 186 % of control; (dose: 6.25 mg/kg/injection, schedule: Q01DX009 (ip), vehicle: saline with Tween-80) 117 % of control; (dose: 12.5 mg/kg/injection, schedule: Q01DX009 (ip), vehicle: saline with Tween-80) 96 % of control.

On to `COC(=O)C1C(=O)C2CCC1C(=O)C2C(=O)OC` (stereo not given), for which the T/C runs as follows: (dose: 50.0 mg/kg/injection, schedule: Q01DX009 (ip), vehicle: saline with Tween-80) 93 % of control; (dose: 100.0 mg/kg/injection, schedule: Q01DX009 (ip), vehicle: saline with Tween-80) 93 % of control; (dose: 200.0 mg/kg/injection, schedule: Q01DX009 (ip), vehicle: saline with Tween-80) 98 % of control.
